“Also recorded” adds a separate entry of the source. No end group written: not given here.
Legend:
[1] = test system: antibody that binds to the oligopeptide in serum samples; assay: ELISA assay of serum antibody that binds to biotinylated oligopeptides immobilised on streptavidin plates; format: binding, human; details: pH 7.4, female subjects, FIG. 2
From the text: Six exemplary oligopeptides of the invention (each 17 amino-acids long, with biotinylated N-terminus) were used to prepare ELISA assays for studying antibody levels in patient samples. The oligopeptides were synthesised by K J Ross-Petersen ApS (Copenhagen, Denmark) and provided in lyophilized form. General serum diluent was purchased from Immunochemistry Technologies LLC (Minnesota, USA). Streptavidin coated 96-Well microplates were purchased from Eagle Biosciences (New Hampshire, USA) and the oligopeptides were applied to individual wells of the streptavidin plates as described below.
Sample preparation: Following obtaining informed consent, a 5 ml venous blood sample was withdrawn from each individual participating in this study. Samples were centrifuged for 10 minutes at 3000 RPM. Serum was then transferred into a clean plastic vial and the remainder was discarded. Serum was then diluted in general serum diluent (200 μl/mL), labelled accordingly and stored at −20° C. […]
ELISA protocol: Typical ELISA protocol was followed for quantifying antibodies present in serum. […] The plate was shaken for 5 seconds at 250 RPM and absorbance was measured using plate reader at wavelength 450 nm and 630 nm filter. Elisys Uno fully automated ELISA analyser (HUMAN company, Wiesbaden, Germany) was used to read the measurements. […]

chicks = assay: MS induction in chicks with antigens combined with pertussis and adjuvant; format: in vivo, chick; details: 1 mg antigen per 70 g body weight
Experimental: As a preliminary examination of our proposed treatment method, we induced MS in chicks by injecting antigens P, F, E and A (corresponding to SEQ ID NOs: 20, 21, 22 and 23) combined with pertussis and adjuvant. The dosage was 1 mg antigen per 70 g body weight. The main reason we chose this animal was to be able to easily visualize the walking impairment as they are bipedal like humans (compared to quadrupedal rodents). Initial symptoms were seen 12 days after antigen injection.

C57BL/6 mice [2] = assay: Disease induction with antigen and adjuvant in combination with Pertussis toxin; format: in vivo, mouse; details: for severity of muscle weakness compared between antigens / grade of plaques compared to control animals: mice; for grade of plaques compared to control animals: mid brain section, antigen + adjuvant + pertussis, FIG. 8
Experimental: (§1) Male (n=16) and female (n=16) C57BL/6 mice, weighing between 16-18 g, were purchased from Royan institute (Tehran, Iran). MS induction study started when mice reached 6-8 weeks of age. Similar investigations were carried chick and guinea pig (data not shown). All procedures were performed aseptically and under supervision of Gandhi Hospital medical ethics committee (Tehran, Iran). Freund's complete adjuvant and Pertussis toxin purchased from Sigma-Aldrich (Dorset, UK).
At day 1 and day 2, 250 μg of antigen (oligopeptides of the invention) diluted in 150 μl of saline combined with 150 μl of adjuvant was injected intra-dermally into alcohol wiped back of each mouse. Following the injection of antigens, 400 ng Pertussis toxin diluted in 300 μl distilled water was injected intraperitoneally. Two control groups received either 150 μl distilled water in 150 μl of adjuvant or 400 ng Pertussis toxin diluted in 300 μl distilled water. The animals were kept in standard housing condition with appropriate temperature and humidity as well as adequate supplies of food and fresh water.
(§2) After scarifying mice by anaesthesia overdose at day 15 of injection, their brain was dissected out and fixed in 10% Formalin for histological analysis. The fixed samples were subsequently cut horizontally and processed to produce 5-micron thin paraffin sections, which then were stained with Haematoxylin and eosin (H&E), Glial fibrillary acidic protein (GFAP), CD-68 and Luxol fast blue (LFB). Various sections of the brain were then analyzed and imaged using a bright-field microscope (Optika B-383PL, Bergamo, Italy). Grade of plaque formation was defined as number of plaques measured in mid brain section as follow: […]
The effect of injected oligopeptide antigens of the invention on muscular function was tested by measuring animal fall time from inverted cage and ring. These tests follow the format of commonly used functional muscle evaluation tests in mice that use “wire hanging” behavioral tests wherein latency to fall after being suspended from a substrate is quantified to give a measure of muscular function.

C57BL/6 mice [3] = assay: Disease induction with antigen and adjuvant without Pertussis toxin; format: in vivo, mouse; details: for grade of plaque formation: mid brain section, day 15, without Pertussis, FIG. 12
Experimental: as §1
C57BL/6 mice were injected with adjuvant and antigens (oligopeptides of the invention) at day 0 and 5. Control group received the injection of only adjuvant in distilled water.
as §2

[4] = test system: multiple sclerosis patients; details: MS patients; cited from earlier work
[5] = fall from inverted cage and ring

## RLTLSPEQAHSLILQHL [antigen S, RLTLSPEQAHSLILQHL]
[1]
  differences between healthy female patients (HF) and female patients with MS (FMS) in the levels of antibody that bind to the oligopeptide: significant for each exemplary oligopeptide besides H and S

## MPRTQENAHSLERCWL [antigen H, MPRTQENAHSLERCWL]
[1]
  differences between healthy female patients (HF) and female patients with MS (FMS) in the levels of antibody that bind to the oligopeptide: significant for each exemplary oligopeptide besides H and S

## RDSANIYHADSLKGRFT (Oligopeptide motif) [antigen A]
chicks
  balance compared to controls: lack of balance
  time to initial symptoms after antigen injection: 12 days
  weight compared to controls: Significant weight loss
C57BL/6 mice [2]; [5]
  severity of muscle weakness compared between antigens: less than those injected with oligopeptide antigen P; also recorded: considerably less effect than oligopeptide antigens E and F
C57BL/6 mice [2]
  grade of plaques compared to control animals: significantly higher

## RHSDEHHHDDSLPHPQQ (Oligopeptide motif) [antigen E]
chicks
  balance compared to controls: lack of balance
  time to initial symptoms after antigen injection: 12 days
  weight compared to controls: Significant weight loss
C57BL/6 mice [2]; female mice, fall from inverted cage and ring
  muscle weakness in female mice: most pronounced muscle weakness
C57BL/6 mice [2]
  grade of plaques compared to control animals: significantly higher
C57BL/6 mice [3]; female mice
  grade of plaque formation: 9 (24-27)
C57BL/6 mice [3]; females
  induction of MS in females: major inducer of MS in females

## Glatiramer acetate [Copaxone]
[4]
  fewer relapses than patients taking placebo: about 30%

## RGSRGQHQAHSLERVCH (Oligopeptide motif) [antigen P]
chicks
  balance compared to controls: lack of balance
  time to initial symptoms after antigen injection: 12 days
  weight compared to controls: Significant weight loss
C57BL/6 mice [2]; [5]
  severity of muscle weakness compared between antigens: considerably less effect than oligopeptide antigens E and F

## RVPGCAHHADSLYTYPV (Oligopeptide motif) [antigen F]
chicks
  balance compared to controls: lack of balance
  time to initial symptoms after antigen injection: 12 days
  weight compared to controls: Significant weight loss
C57BL/6 mice [2]; male mice, fall from inverted cage and ring
  muscle weakness in male mice: most pronounced muscle weakness
C57BL/6 mice [2]
  grade of plaques compared to control animals: significantly higher
C57BL/6 mice [3]; male mice
  grade of plaque formation: 7 (18-21)
C57BL/6 mice [3]; males
  induction of MS in males: major inducer of MS in males

Source: patent publication US11435345B2, “Detection and treatment of demyelinating diseases” (MATN SCIENTIFIC LIMITED, priority 2016, dated 2022)
